This note sets out measurements from paper PMC7774954, “Interactomic affinity profiling by holdup assay: Acetylation and distal residues impact the PDZome-binding specificity of PTEN phosphatase” (PLoS ONE, 2020).

The structures appear in SMILES notation. *1 amine or outer side, *2 acyl side, *3 side chain or, on linkers, in order; H or OH if unused. Where a SMILES comes first, the peptide text is derived from it. The star is where a group is joined. X1 = O=C(CCCC[C@@H]1SC[C@@H]2NC(=O)N[C@@H]21)NCCCOCCOCCOCCCN*; Suc = O=C(CCC(=O)[*:2])[*:1]

Test [1] relates to human PDZome. Kind of test: Promiscuity / specificity index from PDZome affinity profile (combined holdup and FP). Type of test: binding. Particulars: for Nb PDZ (BI): Val for BI=0.2; for Max Log(Kd): maximum over PDZome; for 1/2PDZ: number of PDZ, 1/2PDZ Min and Max; for number of PDZ domains above the half-maximal binding affinity: relative to number of tested and validated PDZ domains. The source says:
Using the mean concentration obtained above for each of the different PTEN peptides, the experimental BI values recorded by holdup for all tested domain/peptide pairs were subsequently transformed into equilibrium dissociation constants. […] Thereafter, affinity data measured by FP assay were also included in the […] for the PDZ domains (MAST1-1, MAST2-1, SNX27-1, MAGI1-2 and GRID2IP-2) for which holdup data were missing according to the low quality score in the filtering step. These interaction data detected only by competitive FP and not by holdup represented 1 to 2 additional PDZ binders per PTEN construct. […] This transformation into affinity values makes then possible to compare binding affinity profiles obtained for different peptides and potentially different batches.
The above described holdup-FP strategy delivers binding affinity constants, a universal chemical property. […] We then looked for a numerical parameter that would express, in a quantitative way, this specificity or promiscuity information. For this purpose, we calculated for each profile the difference between the maximal and the minimal significant affinity values detected by the assay, ΔGmax − ΔGmin. Next, we introduced a threshold affinity, called "half-maximal binding affinity" defined as follows: ΔGhalf = ΔGmin + (ΔGmax − ΔGmin)/2. […] Alternatively, the specificity index IS could be defined as 1 –IP. Therefore, the lower the promiscuity index, the higher the specificity index, the higher the specificity of the PBM for a limited number of selected domains across the PDZome.
We probed the specificity index on the PDZome-binding profiles of the four PTEN peptides. […] This would indicate, in qualitative terms, that the PTEN_13 peptide selects PDZ domains in a more specific -less promiscuous- way than that of the three of other peptides. […] One should note that it was not possible to determine index uncertainty by error propagation starting from holdup data, since BI values have been recorded in singlicate. However, the dispersion of log(KD) values around the perfect theoretical correlation line in the correlation plot (Fig 5B) is representative of global IS uncertainty, which was therefore estimated by averaging the distances between the experimental dots and the theoretical diagonal. Details about uncertainties and Fisher’s test calculations are provided in Supp. Materials and S1 File.
Uncertainty on IS was estimated according to several steps described below:
- Since it’s not possible strictly talking to propagate uncertainty for data recorded in singlicate, we considered that log(KD) uncertainty is contained in the correlation plot [log(KD,HU) vs. log(KD,FP)] when comparing the experimental data with the perfect theoretical correlation (the dotted diagonal line).
- Originally, we estimated the 1/2 PDZ index by counting the number of PDZ with a log(KD) value above the threshold calculated with the formulae developed in the manuscript. Then we did the same type of counting for [threshold value + log(KD) uncertainty] and for [threshold value - log(KD) uncertainty].
- From the difference in the two counts is estimated the index uncertainty.
Due to the low number of PDZ occurrences, a Fisher's exact test was preferred to estimate the p-value. Calculations were performed online with http://astatsa.com using default parameters.

Test [2] deals with APBA3-1. Briefly: Holdup assay, APBA3-1. Type of test: binding, human.
The target in test [3] is T1, DFNB31-1 (Homo sapiens, UniProt Q9P202).
T1 sequence (Q9P202 140-223): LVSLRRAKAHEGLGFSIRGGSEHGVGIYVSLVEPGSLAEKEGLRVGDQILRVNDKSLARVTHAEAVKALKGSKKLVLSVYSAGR
Briefly: Holdup assay, DFNB31-1. Type of test: binding.

Test [4] deals with T2, FRMPD2-2 (Homo sapiens, UniProt Q68DX3).
T2 sequence (Q68DX3 1-1309): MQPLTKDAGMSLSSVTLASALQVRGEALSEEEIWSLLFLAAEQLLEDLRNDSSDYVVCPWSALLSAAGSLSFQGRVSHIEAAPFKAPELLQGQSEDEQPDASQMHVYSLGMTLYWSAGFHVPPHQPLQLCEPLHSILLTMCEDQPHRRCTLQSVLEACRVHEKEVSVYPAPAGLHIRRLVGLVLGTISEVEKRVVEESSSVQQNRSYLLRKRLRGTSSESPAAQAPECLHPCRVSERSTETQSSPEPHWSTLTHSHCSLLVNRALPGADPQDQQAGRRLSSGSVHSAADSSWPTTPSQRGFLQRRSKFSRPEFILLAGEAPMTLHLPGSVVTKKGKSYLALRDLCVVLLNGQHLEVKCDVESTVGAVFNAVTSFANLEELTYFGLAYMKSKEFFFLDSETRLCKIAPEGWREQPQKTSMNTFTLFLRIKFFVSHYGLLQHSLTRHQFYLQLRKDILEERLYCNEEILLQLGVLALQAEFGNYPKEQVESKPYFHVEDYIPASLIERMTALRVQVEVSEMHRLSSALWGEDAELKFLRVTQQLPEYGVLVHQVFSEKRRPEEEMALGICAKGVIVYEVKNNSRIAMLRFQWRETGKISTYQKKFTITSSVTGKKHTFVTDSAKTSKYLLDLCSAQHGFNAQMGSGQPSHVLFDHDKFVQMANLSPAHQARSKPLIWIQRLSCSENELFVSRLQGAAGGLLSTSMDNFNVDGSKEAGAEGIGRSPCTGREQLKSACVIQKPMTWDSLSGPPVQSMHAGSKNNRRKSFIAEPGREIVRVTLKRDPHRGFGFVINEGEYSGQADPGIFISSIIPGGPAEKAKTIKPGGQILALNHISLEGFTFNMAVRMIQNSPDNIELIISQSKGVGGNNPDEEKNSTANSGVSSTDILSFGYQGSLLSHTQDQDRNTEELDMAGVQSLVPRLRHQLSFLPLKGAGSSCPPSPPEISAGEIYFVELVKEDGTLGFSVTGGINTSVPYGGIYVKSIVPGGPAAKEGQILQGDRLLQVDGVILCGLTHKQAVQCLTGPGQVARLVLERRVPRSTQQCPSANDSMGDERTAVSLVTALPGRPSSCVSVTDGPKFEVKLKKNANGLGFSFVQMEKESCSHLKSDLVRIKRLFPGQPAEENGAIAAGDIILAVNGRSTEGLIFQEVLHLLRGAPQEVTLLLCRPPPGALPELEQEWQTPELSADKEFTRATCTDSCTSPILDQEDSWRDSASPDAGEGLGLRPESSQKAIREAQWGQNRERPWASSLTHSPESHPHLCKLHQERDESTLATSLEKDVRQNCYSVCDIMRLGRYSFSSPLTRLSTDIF
Briefly: Holdup assay, FRMPD2-2. Type of test: binding.

Test [5] has as its target T3, LNX1-2 (Homo sapiens, UniProt Q8TBB1).
T3 sequence (Q8TBB1 385-467): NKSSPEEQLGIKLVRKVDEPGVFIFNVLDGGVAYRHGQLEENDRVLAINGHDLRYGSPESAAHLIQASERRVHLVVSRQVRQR
Briefly: Holdup assay, LNX1-2. It counts as binding.

As to `CC[C@H](C)[C@H](NC(=O)[C@H](CCC(N)=O)NC(=O)[C@@H](NC(=O)[C@H](Cc1c[nH]cn1)NC(=O)[C@H](CCC(N)=O)NC(=O)[C@H](CC(=O)O)NC(=O)[C@H](CCC(=O)O)NC(=O)[C@H](CC(=O)O)NC(=O)[C@H](Cc1ccccc1)NC(=O)[C@@H]1CCCN1C(=O)CCC(=O)NCCCOCCOCCOCCCNC(=O)CCCC[C@@H]1SC[C@@H]2NC(=O)N[C@@H]21)[C@@H](C)O)C(=O)N[C@H](C(=O)N[C@@H](CCCCN)C(=O)N[C@H](C(=O)O)C(C)C)[C@@H](C)O` [PTEN_13] ({X1-Suc}-PFDEDQHTQITKV-OH), in test [1], the “Nb PDZ (BI)” value was found to be 25, the “Max Log(Kd)” value is reported as 5.89, the 1/2PDZ is on record as 4 and the “number of PDZ domains above the half-maximal binding affinity” value (“number” for short) is reported as 4. The “specificity (in words)” value in test [1] (compared with the three 11-mer peptides) is reported as “slight increased specificity”. In test [2], this molecule had a BI of 0.015. The molecule also showed a BI in test [3] of 0.145. In addition, in test [4], the BI was 0.254 and the Kd is 46.9 µM. Further, in test [5], the BI was found to be 0.44 and the Kd was 19.4 µM.
`CC[C@H](C)[C@H](NC(=O)[C@H](CCC(N)=O)NC(=O)[C@@H](NC(=O)[C@H](Cc1c[nH]cn1)NC(=O)[C@H](CCC(N)=O)NC(=O)[C@H](CC(=O)O)NC(=O)[C@H](CCC(=O)O)NC(=O)[C@H](CC(=O)O)NC(=O)CCC(=O)NCCCOCCOCCOCCCNC(=O)CCCC[C@@H]1SC[C@@H]2NC(=O)N[C@@H]21)[C@@H](C)O)C(=O)N[C@H](C(=O)N[C@@H](CCCNC(=N)N)C(=O)N[C@H](C(=O)O)C(C)C)[C@@H](C)O` [PTEN_KR] ({X1-Suc}-DEDQHTQITRV-OH): in test [1], the “Nb PDZ (BI)” value is given as 38, the 1/2PDZ is on record as 9 and the “number” value turned out to be 9. In test [2], this molecule showed a BI of -0.056 and a LogKD of 3.655. This molecule also came in with a BI in test [3] of 0.118. In test [4], this molecule gave a BI of 0.295 and a Kd of 56.9 µM.
With `CC[C@H](C)[C@H](NC(=O)[C@H](CCC(N)=O)NC(=O)[C@@H](NC(=O)[C@H](Cc1c[nH]cn1)NC(=O)[C@H](CCC(N)=O)NC(=O)[C@H](CC(=O)O)NC(=O)[C@H](CCC(=O)O)NC(=O)[C@H](CC(=O)O)NC(=O)CCC(=O)NCCCOCCOCCOCCCNC(=O)CCCC[C@@H]1SC[C@@H]2NC(=O)N[C@@H]21)[C@@H](C)O)C(=O)N[C@H](C(=O)N[C@@H](CCCCN)C(=O)N[C@H](C(=O)O)C(C)C)[C@@H](C)O` [PTEN_11], in test [1], the “Nb PDZ (BI)” value came to 19, the “Max Log(Kd)” value is on record as 4.90, the 1/2PDZ is on record as 9 and the “number” value is reported as 9. In test [2], this molecule registered a BI of -0.03 and a LogKD of 3.519. The BI in test [3] worked out at 0.108. In test [4], this molecule gave a BI of 0.291 and a Kd of 80 µM. Besides, in test [5], the BI worked out at 0.105.
Regarding `CC[C@H](C)[C@H](NC(=O)[C@H](CCC(N)=O)NC(=O)[C@@H](NC(=O)[C@H](Cc1c[nH]cn1)NC(=O)[C@H](CCC(N)=O)NC(=O)[C@H](CC(=O)O)NC(=O)[C@H](CCC(=O)O)NC(=O)[C@H](CC(=O)O)NC(=O)CCC(=O)NCCCOCCOCCOCCCNC(=O)CCCC[C@@H]1SC[C@@H]2NC(=O)N[C@@H]21)[C@@H](C)O)C(=O)N[C@H](C(=O)N[C@@H](CCCCNC(C)=O)C(=O)N[C@H](C(=O)O)C(C)C)[C@@H](C)O` [PTEN_Ac], in test [1], the “Nb PDZ (BI)” value came out at 43, the 1/2PDZ is reported as 12 and the “number” value stood at 12. In test [2], this molecule gave a BI of -0.113 and a LogKD of 3.605. In test [3], this molecule registered a BI of 0.09 and a LogKD of 3.605. Besides, in test [4], the BI is on record as 0.574 and binding was characterised by a dissociation constant (Kd) of 19.1 µM. The BI in test [5] worked out at 0.164.
